Measurements as given in US7288256B1, “T cell epitopes of the major allergens from dermatophagoides (house dust mite)” (Merck Patent GmbH, priority 1991, dated 2007).
Residues, ends and D or L forms follow the SMILES beside them.

How the values were obtained:
[1] = pH-stability profile of candidate peptides (percent degradant peak area by HPLC); details: for solution stability in equal concentration combination: 3, 2 and 1 mg/ml per peptide, 24 hours at about 5° C. and about 22° C., common window within pH 6 to pH 8; for stability (in words): single peptide, aqueous buffer, pH 6 to pH 8, development of DPII-22.14
Procedure: The concentration of filtered peptide solutions was determined by HPLC analysis. In this experiment, the solubility of peptide at each pH is defined as the amount of peptide remaining in solution after filtration through a membrane filter having a 0.2 micrometer pore size. The extent of degradation of peptides was estimated by calculating the percent of total degradant peak area over the total peak area.

[2] = pH-solubility profile of candidate peptides (HPLC of filtrate); format: physicochemical; details: for solubility thermodynamic at 24 h: at a pH in the pH range of pH 6 to pH 8, 50 mM sodium phosphate, about 22° C.; for solubility (in words, against the superior solubility standard of 3 mg/ml): development of DPII-22.14 from DpII-22
Procedure: Stock solution A: 0.66 g […] of monobasic sodium phosphate monohydrate U.S.P. and 50 mg EDTA disodium dihydrate, U.S.P. were dissolved in 100 mL of WFI. The solution was filtered through a 0.2 micron filter
Stock solution B: 0.71 g […] of dibasic sodium phosphate U.S.P. were disolved in 100 ml WFI. The solution was filtered through a 0.2 micron filter.
Dispersions A and B were sonicated for 2 minutes for good homogeneity. A small volume was pipetted from each dispersion into a labeled eppendoff vial according to the following volume ratio:
The resultant solutions/suspensions were stored in the dark at about 22° C.±2 for 24 hours without agitation. The solutions were filtered and filtrates were analyzed for pH and peptide concentration.

| SMILES | solution stability in equal concentration combination [1] | solubility thermodynamic at 24 h [2] [µg/mL] | stability (in words) [1] | solubility (in words, against the superior solubility standard of 3 mg/ml) [2] |
| --- | --- | --- | --- | --- |
| CC[C@H](C)[C@H](NC(=O)[C@H](C)NC(=O)[C@H](CS)NC(=O)[C@H](C)NC(=O)[C@H](CC(C)C)NC(=O)[C@@H](NC(=O)CNC(=O)[C@H](CC(=O)O)NC(=O)[C@H](CC(=O)O)NC(=O)CNC(=O)[C@H](CCSC)NC(=O)[C@@H](NC(=O)[C@H](CCCCN)NC(=O)[C@@H](NC(=O)[C@@H](NC(=O)[C@H](CCC(=O)O)NC(=O)[C@H](CCC(=O)O)NC(=O)[C@@H](N)CC(=O)O)[C@@H](C)O)C(C)C)C(C)C)C(C)C)C(=O)N[C@@H](C)C(=O)N[C@H](C(=O)N[C@@H](Cc1c[nH]cn1)C(=O)N[C@@H](C)C(=O)N[C@@H](CCCCN)C(=O)N[C@H](C(=O)N[C@@H](CCCNC(=N)N)C(=O)N[C@@H](CC(=O)O)C(=O)N[C@@H](CCC(=O)O)C(=O)N[C@@H](CCC(=O)O)C(=O)O)[C@@H](C)CC)[C@@H](C)O [DP II-25.15] (H-DEETVKVMGDDGVLACAIATHAKIRDEE-OH; N-terminus and C-terminus assumed) | acceptable solution stability | > 3000 |  |  |
| CC(C)[C@H](NC(=O)CNC(=O)[C@H](CCC(=O)O)NC(=O)[C@H](CCC(=O)O)NC(=O)[C@@H](N)CC(=O)O)C(=O)N[C@H](C(=O)N[C@@H](CCC(N)=O)C(=O)N[C@@H](CCC(=O)O)C(=O)N[C@@H](CO)C(=O)N[C@@H](Cc1ccc(O)cc1)C(=O)N[C@@H](Cc1ccc(O)cc1)C(=O)N[C@@H](CCCNC(=N)N)C(=O)N[C@@H](Cc1ccc(O)cc1)C(=O)N[C@H](C(=O)N[C@@H](C)C(=O)N[C@@H](CCCNC(=N)N)C(=O)N[C@@H](CCC(=O)O)C(=O)N[C@@H](CCC(N)=O)C(=O)N[C@@H](CO)C(=O)N[C@@H](CS)C(=O)N[C@@H](CCCNC(=N)N)C(=O)N[C@@H](CCCNC(=N)N)C(=O)N1CCC[C@H]1C(=O)N[C@@H](CC(N)=O)C(=O)N[C@@H](C)C(=O)N[C@@H](CCC(=O)O)C(=O)O)C(C)C)C(C)C [DP I-23.31] (H-DEEGVVQESYYRYVAREQSCRRPNAE-OH; N-terminus and C-terminus assumed) | acceptable solution stability | > 3000 |  |  |
| CC[C@H](C)[C@H](NC(=O)[C@H](CO)NC(=O)[C@H](C)NC(=O)[C@H](CCCCN)NC(=O)[C@@H](NC(=O)[C@H](CCC(=O)O)NC(=O)[C@@H](NC(=O)[C@H](CCCCN)NC(=O)[C@H](C)NC(=O)[C@@H](NC(=O)[C@H](CCCCN)NC(=O)[C@@H](NC(=O)[C@H](CC(N)=O)NC(=O)[C@H](CCC(N)=O)NC(=O)[C@H](CC(N)=O)NC(=O)[C@H](C)NC(=O)[C@H](CCC(=O)O)NC(=O)[C@H](Cc1ccccc1)NC(=O)[C@@H](NC(=O)[C@H](C)NC(=O)[C@H](CCC(=O)O)NC(=O)[C@H](CC(C)C)NC(=O)[C@H](CCC(N)=O)NC(=O)[C@@H](N)CCCCN)C(C)C)[C@@H](C)O)[C@@H](C)O)[C@@H](C)CC)[C@@H](C)CC)C(=O)N[C@@H](CC(=O)O)C(=O)NCC(=O)N[C@@H](CC(C)C)C(=O)N[C@@H](CCC(=O)O)C(=O)N[C@H](C(=O)N[C@@H](CCCCN)C(=O)O)C(C)C [DP II-22.2] (H-KQLEAVFEANQNTKTAKIEIKASIDGLEVK-OH) |  |  | stability improved substantially | solubility did not reach the standard |
| CC[C@H](C)[C@H](NC(=O)[C@H](CCC(=O)O)NC(=O)[C@@H](NC(=O)[C@H](CCCCN)NC(=O)[C@H](C)NC(=O)[C@@H](NC(=O)[C@H](CCCCN)NC(=O)[C@@H](NC(=O)[C@H](CC(N)=O)NC(=O)[C@H](CCC(N)=O)NC(=O)[C@H](CC(N)=O)NC(=O)[C@H](C)NC(=O)[C@H](CCC(=O)O)NC(=O)[C@H](Cc1ccccc1)NC(=O)[C@@H](NC(=O)[C@H](C)NC(=O)[C@H](CCC(=O)O)NC(=O)[C@H](CC(C)C)NC(=O)[C@H](CCC(N)=O)NC(=O)[C@H](CCCCN)NC(=O)[C@@H](N)CC(=O)O)C(C)C)[C@@H](C)O)[C@@H](C)O)[C@@H](C)CC)C(=O)N[C@@H](CCCCN)C(=O)N[C@@H](C)C(=O)N[C@@H](CO)C(=O)N[C@H](C(=O)N[C@@H](CC(=O)O)C(=O)N[C@@H](CCC(=O)O)C(=O)O)[C@@H](C)CC [DP II-22.5] (H-DKQLEAVFEANQNTKTAKIEIKASIDE-OH; N-terminus and C-terminus assumed) |  |  |  | very soluble |
| CC[C@H](C)[C@H](NC(=O)[C@H](CCC(=O)O)NC(=O)[C@H](C)NC(=O)[C@@H]1CCCN1C(=O)[C@H](C)NC(=O)[C@H](CC(N)=O)NC(=O)CNC(=O)[C@H](CC(N)=O)NC(=O)[C@@H](NC(=O)[C@@H](N)CO)[C@@H](C)CC)C(=O)N[C@@H](CC(=O)O)C(=O)N[C@@H](CC(C)C)C(=O)N[C@@H](CCCNC(=N)N)C(=O)N[C@@H](CCC(N)=O)C(=O)N[C@@H](CCSC)C(=O)N[C@@H](CCCNC(=N)N)C(=O)N[C@H](C(=O)N[C@H](C(=O)N[C@H](C(=O)N1CCC[C@H]1C(=O)N[C@H](C(=O)N[C@@H](CCCNC(=N)N)C(=O)N[C@@H](CCSC)C(=O)N[C@@H](CCC(N)=O)C(=O)O)[C@@H](C)CC)[C@@H](C)O)C(C)C)[C@@H](C)O [DP I-21.2] (H-SINGNAPAEIDLRQMRTVTPIRMQ-OH; N-terminus and C-terminus assumed) | acceptable solution stability | > 3000 |  |  |
| CC[C@H](C)[C@H](NC(=O)CNC(=O)[C@H](CCC(=O)O)NC(=O)[C@@H](N)CC(=O)O)C(=O)N[C@@H](CCCCN)C(=O)N[C@@H](CC(=O)O)C(=O)N[C@@H](CC(C)C)C(=O)N[C@@H](CC(=O)O)C(=O)N[C@@H](C)C(=O)N[C@@H](Cc1ccccc1)C(=O)N[C@@H](CCCNC(=N)N)C(=O)N[C@@H](Cc1c[nH]cn1)C(=O)N[C@@H](Cc1ccc(O)cc1)C(=O)N[C@@H](CC(=O)O)C(=O)NCC(=O)N[C@@H](CCCNC(=N)N)C(=O)N[C@H](C(=O)N[C@H](C(=O)N[C@H](C(=O)N[C@@H](CCC(N)=O)C(=O)N[C@@H](CCCNC(=N)N)C(=O)N[C@@H](CC(=O)O)C(=O)N[C@@H](CC(N)=O)C(=O)NCC(=O)N[C@@H](Cc1ccc(O)cc1)C(=O)N[C@@H](CCC(=O)O)C(=O)O)[C@@H](C)CC)[C@@H](C)CC)[C@@H](C)O [DP I-26.6] (H-DEGIKDLDAFRHYDGRTIIQRDNGYE-OH; N-terminus and C-terminus assumed) | acceptable solution stability | > 3000 |  |  |
| CC[C@H](C)[C@H](NC(=O)[C@H](CO)NC(=O)[C@H](C)NC(=O)[C@H](CCCCN)NC(=O)[C@@H](NC(=O)[C@H](CCC(=O)O)NC(=O)[C@@H](NC(=O)[C@H](CCCCN)NC(=O)[C@H](C)NC(=O)[C@@H](NC(=O)[C@H](CCCCN)NC(=O)[C@@H](NC(=O)[C@H](CC(N)=O)NC(=O)[C@H](CCC(N)=O)NC(=O)[C@H](CC(N)=O)NC(=O)[C@H](C)NC(=O)[C@H](CCC(=O)O)NC(=O)[C@H](Cc1ccccc1)NC(=O)[C@@H](NC(=O)[C@H](C)NC(=O)[C@H](CCC(=O)O)NC(=O)[C@H](CC(C)C)NC(=O)[C@H](CCC(N)=O)NC(=O)[C@H](CCCCN)NC(=O)[C@@H](N)CC(=O)O)C(C)C)[C@@H](C)O)[C@@H](C)O)[C@@H](C)CC)[C@@H](C)CC)C(=O)N[C@@H](CC(=O)O)C(=O)NCC(=O)N[C@@H](CC(C)C)C(=O)N[C@@H](CCC(=O)O)C(=O)N[C@H](C(=O)N[C@@H](CC(=O)O)C(=O)O)C(C)C [DP II-22.6] (H-DKQLEAVFEANQNTKTAKIEIKASIDGLEVD-OH) |  |  | stability improved substantially | solubility did not reach the standard |
| CC(C)C[C@H](NC(=O)[C@H](Cc1ccc(O)cc1)NC(=O)[C@H](C)NC(=O)[C@H](CO)NC(=O)[C@H](CCC(=O)O)NC(=O)[C@@H](NC(=O)[C@H](C)NC(=O)[C@H](C)NC(=O)[C@@H](N)C(C)C)[C@@H](C)O)C(=O)N[C@@H](C)C(=O)N[C@@H](Cc1ccc(O)cc1)C(=O)N[C@@H](CCCNC(=N)N)C(=O)N[C@@H](CC(N)=O)C(=O)N[C@H](C(=O)N[C@@H](CO)C(=O)N[C@@H](CC(C)C)C(=O)N[C@@H](CC(=O)O)C(=O)N[C@@H](CC(C)C)C(=O)N[C@@H](CO)C(=O)N[C@@H](CCC(=O)O)C(=O)N[C@@H](CCC(N)=O)C(=O)N[C@@H](CCC(=O)O)C(=O)N[C@@H](CC(C)C)C(=O)N[C@H](C(=O)N[C@@H](CC(=O)O)C(=O)O)C(C)C)[C@@H](C)O [DF I-22.2] (H-VAATESAYLAYRNTSLDLSEQELVD-OH; N-terminus and C-terminus assumed) | acceptable solution stability | > 3000 |  |  |
